According to a compilation of properties of binary mixtures (doi:10.1021/jp502400z):

Test: xn = mol fraction of the nth substance listed
Conditions: 298.15 K, 101 kPa

O + CC(=O)[O-].CC[NH2+]CC
Conditions | speed of sound [m/s]
x1 = 1 | 1496

O + CC[NH2+]CC.O=S(=O)([O-])O
x1 = 1
Conditions | speed of sound [m/s] | viscosity [mPa·s]
– | 1496 | 0.89

O + CC[NH+](CC)CC.O=S(=O)([O-])O
x1 = 1
Conditions | speed of sound [m/s] | viscosity [mPa·s]
– | 1496 | 0.89

O + C[NH+](C)C.O=S(=O)([O-])O
x1 = 1
Conditions | speed of sound [m/s] | viscosity [mPa·s]
– | 1496 | 0.89

CC(=O)[O-].CC[NH2+]CC + O
Conditions | speed of sound [m/s]
x2 = 0 | 1608
x2 = 0.0881 | 1602
x2 = 0.1637 | 1599
x2 = 0.2293 | 1598
x2 = 0.2866 | 1597
x2 = 0.3373 | 1596
x2 = 0.459 | 1594
x2 = 0.5741 | 1589
x2 = 0.6182 | 1585
x2 = 0.6562 | 1581
x2 = 0.7179 | 1572
x2 = 0.7433 | 1568
x2 = 0.8208 | 1551
x2 = 0.8735 | 1538
x2 = 0.8941 | 1532
x2 = 0.9197 | 1524
x2 = 0.9468 | 1516
x2 = 0.9634 | 1510

CC(=O)[O-].C[NH+](C)C + O
Conditions | speed of sound [m/s] | viscosity [mPa·s]
x1 = 0.0451 | 1499 | 1.199
x1 = 0.0651 | 1503 | 1.31
x1 = 0.0978 | 1504 | 1.5
x1 = 0.1283 | 1507 | 1.64
x1 = 0.1524 | 1510 | 1.75
x1 = 0.2133 | 1517 | 1.99
x1 = 0.3002 | 1525 | 2.24
x1 = 0.328 | 1527 | 2.31
x1 = 0.3943 | 1532 | 2.43
x1 = 0.4341 | 1534 | 2.48
x1 = 0.4797 | 1535 | 2.52
x1 = 0.5325 | 1537 | 2.56
x1 = 0.6292 | 1538 | 2.61
x1 = 0.7094 | 1539 | 2.62
x1 = 0.7556 | 1540 | 2.63
x1 = 0.9278 | 1542 | 2.69
x1 = 1 | 1544 | 2.76

CC[NH+](CC)CC.O=S(=O)([O-])O + O
Conditions | speed of sound [m/s] | viscosity [mPa·s]
x2 = 0 | 1874 | 235
x2 = 0.1228 | 1828 | 210
x2 = 0.2209 | 1819 | 195
x2 = 0.3679 | 1836 | 176
x2 = 0.4728 | 1844 | 162
x2 = 0.5147 | 1843 | 156
x2 = 0.6613 | 1795 | 129
x2 = 0.7011 | 1772 | 120
x2 = 0.7866 | 1702 | 95.2
x2 = 0.8075 | 1677 | 87.3
x2 = 0.869 | 1616 | 63.1
x2 = 0.9091 | 1581 | 48.8
x2 = 0.9432 | 1542 | 29.5
x2 = 0.9627 | 1526 | 19.9
x2 = 0.9743 | 1507 | 14.14

CC[NH2+]CC.O=S(=O)([O-])O + O
Conditions | speed of sound [m/s] | viscosity [mPa·s]
x2 = 0.1212 | 1426 | 30.4
x2 = 0.2183 | 1429 | 29.6
x2 = 0.2979 | 1433 | 30.1
x2 = 0.3644 | 1436 | 31
x2 = 0.4207 | 1437 | 31.3
x2 = 0.5476 | 1443 | 32.3
x2 = 0.6578 | 1441 | 31.4
x2 = 0.6979 | 1440 | 30.2
x2 = 0.7314 | 1439 | 28.8
x2 = 0.7841 | 1437 | 26
x2 = 0.8051 | 1438 | 24.6
x2 = 0.8673 | 1439 | 19.3
x2 = 0.9079 | 1444 | 15.14
x2 = 0.9233 | 1448 | 13.51
x2 = 0.9424 | 1454 | 11.06
x2 = 0.9622 | 1461 | 8.48
x2 = 0.9741 | 1468 | 6.19

C[NH+](C)C.O=S(=O)([O-])O + O
Conditions | speed of sound [m/s] | viscosity [mPa·s]
x2 = 0 | 1564 | 5.1
x2 = 0.1369 | 1553 | 4.86
x2 = 0.1942 | 1555 | 4.74
x2 = 0.2919 | 1558 | 4.53
x2 = 0.3723 | 1562 | 4.34
x2 = 0.4691 | 1565 | 4.05
x2 = 0.5219 | 1564 | 3.88
x2 = 0.6073 | 1556 | 3.54
x2 = 0.6734 | 1541 | 3.22
x2 = 0.7012 | 1531 | 3.08
x2 = 0.7878 | 1502 | 2.58
x2 = 0.8724 | 1472 | 2.01
x2 = 0.9027 | 1470 | 1.76
x2 = 0.9352 | 1466 | 1.49
